Data on five compounds can be found in PubChem BioAssay (NCI).

Among the test systems are MDA-MB-231 breast; SK-OV-3 ovarian; NCI-H23 lung; DU-145 prostate; MCF7 breast; NCI/ADR-RES ovarian; MDA-N; T-47D breast; COLO 205 colon; A549 NSCLC; ACHN renal; SK-MEL-2 melanoma.
Common to all, as to test: growth of human tumour cells (NCI), 48 h

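Cultured in 96-well plates, cells were exposed to test compound for 48 hours across five concentrations. At the TGI there is no net growth.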 Bounds are passed on as bounds.

For `O=C(/C=C(\O)c1ccccc1)/C(=C/C(=O)c1ccccc1)NN=C(c1ccccc1)c1ccccc1`, the TGI with MDA-MB-231 breast is more than 100 µM; with SK-OV-3 ovarian, 92.5 µM; with NCI-H23 lung, 79.9 µM; with DU-145 prostate, more than 100 µM; in the assay on MCF7 breast, more than 100 µM; in the assay on NCI/ADR-RES ovarian it was 77.6 µM. Besides, the TGI in the assay with MDA-N is more than 100 µM; in the assay on T-47D breast, more than 100 µM; in the assay on COLO 205 colon, more than 100 µM; with A549 NSCLC, more than 100 µM; in the assay with ACHN renal it was more than 100 µM; in the assay with SK-MEL-2 melanoma, 84.2 µM.

Regarding `S=C(N/N=C\c1ccccn1)N(Cc1ccccn1)Cc1ccccn1`, the TGI with MDA-MB-231 breast is more than 49 µM; in the assay with SK-OV-3 ovarian, 17.9 µM; in the assay on NCI-H23 lung it was 14.5 µM; in the assay on DU-145 prostate, 19.7 µM; in the assay with MCF7 breast, more than 100 µM; in the assay on NCI/ADR-RES ovarian, 5.2 µM. The TGI in the assay with MDA-N is 47.9 µM; in the assay with T-47D breast it was more than 40.4 µM; in the assay with COLO 205 colon it was 23.9 µM; in the assay with A549 NSCLC, more than 42 µM; in the assay on ACHN renal it was 5.13 µM; in the assay with SK-MEL-2 melanoma, 37.9 µM.

Take `CCn1c2ccc(O)c(C(=O)OC)c2c2cc3ccccc3c(O)c21`: the TGI is more than 100 µM with MDA-MB-231 breast; 43.8 µM in the assay with SK-OV-3 ovarian; 52.4 µM with NCI-H23 lung; 40.8 µM in the assay on DU-145 prostate; more than 100 µM in the assay with MCF7 breast; 57.2 µM with NCI/ADR-RES ovarian. In addition, the TGI with MDA-N amounted to 72.4 µM; with T-47D breast, 34.1 µM; in the assay on COLO 205 colon, 29.5 µM; with A549 NSCLC, 83 µM; in the assay with ACHN renal, 54.1 µM; in the assay on SK-MEL-2 melanoma, 36.6 µM.

As for `O=S(=O)(O)c1cc(O)c2c(O)c(N=Nc3cccc4ccccc34)c(S(=O)(=O)O)cc2c1`, the TGI with MDA-MB-231 breast, with SK-OV-3 ovarian, with NCI-H23 lung, in the assay on DU-145 prostate, with MCF7 breast and in the assay with NCI/ADR-RES ovarian was more than 100 µM each time. Besides, the TGI in the assay with MDA-N, in the assay with T-47D breast, with COLO 205 colon, in the assay with A549 NSCLC, in the assay with ACHN renal and in the assay on SK-MEL-2 melanoma was more than 100 µM throughout.

As for `Oc1nc(N/N=C/c2ccccc2)[nH]c1/C=C1\C=Nc2ccccc21`, the TGI with MDA-MB-231 breast, with SK-OV-3 ovarian, in the assay on NCI-H23 lung, in the assay on DU-145 prostate, with MCF7 breast and with NCI/ADR-RES ovarian was more than 100 µM in each case. In addition, the TGI in the assay with MDA-N, in the assay on T-47D breast, in the assay with COLO 205 colon, in the assay on A549 NSCLC, in the assay with ACHN renal and with SK-MEL-2 melanoma was more than 100 µM each time.
